In patent US20240207422A1, “NERVE TARGETING PEPTIDE CONJUGATES AND METHODS OF USE” (Alume Biosciences, Inc., priority 2022, published 2024) one finds Count data, which are given here for 37 substances.

The assay concerns human nerve extract. Put plainly: Phage display selection on plates coated with human nerve extract (Plated Nerve2), NextGen sequence counts. Format: binding. The settings on record: unique sequence count (relative enrichment); Plated Nerve2 only. On the procedure: Several m13 phage libraries were constructed expressing randomized variants of a parent peptide (QVPWEEPYYVVKKS-SGGL; SEQ ID NO: 576). In particular, the first 14 amino acids of the parent peptide were randomized using degenerate oligonucleotide synthesis to obtain a diverse set of peptides with a mutation rate of about 50% per residue.
To accomplish this, synthesis was carried out by the XXK codon design approach, where X is any base and K is G or T. To bias synthesis towards the parent sequence, synthesis was carried out at each X position with a mixture of about 70%-85% of the parent nucleotide and 15-30% of the remaining 3 nucleotides. The resulting molecules were inserted into fADL-1e (Antibody Design Laboratories), which is a type 3 phage display vector having a cloning site on the N-terminal side of the full-length gene III protein. The fusion proteins are directed to the periplasm by the PelB leader peptide, which is inserted in the vector […].
Collectively, the phage display libraries used in the screens comprised about 600 million peptides, with sequencing analysis confirming a mutation rate of about 50% per residue.
Phage libraries were independently processed, as follows, with five biological samples: two independent samples of excised human nerve tissue, one sample of a human nerve extract, and two independent samples of human muscle tissue, as follows:
Human Nerve Extracts: Phage libraries were incubated for up to 24 hours at 4° C. in 96 well plates that had been coated with a human nerve extract. Plates were then washed with PBS and phage were eluted using 0.2M glycine pH 2.0. Phage supernatants where then neutralized with Tris pH 9.0 prior to plating on TG1 bacteria and LB agar plates. Colonies were counted to determine titer followed by DNA preparation of pools of phage and NextGen sequencing. After rounds of selection, phage were pooled and amplified for iterative selection. Phage that eluted by 0.2M glycine pH 2.0 (the nerve binders) at each round were sequenced. NextGen sequencing of pools after 2, 3 and 4 rounds of selection were used to isolate candidate sequences that were further analyzed using bioinformatics.
NextGen sequencing of pools after 2, 3 and 4 rounds of selection were used to isolate candidate sequences from each of the five samples. These five data sets were then analyzed as described in the next section.
Peptide and vector sequences were translated starting at the first start codon in the nucleotide sequence. […] Trimmed peptides with identical sequences were combined and quantified according to their frequency (count).
Following processing, an R script was written to merge the unique peptide sequences (with counts 6 or greater) from the 5 different data sets to analyze the overlap between nerve and muscle binding activity.
For the single Nerve2, Nerve3, and Plated Nerve2 (pn2) subsets, the number of counts for each group was set at a threshold giving rise to at least 100 peptides. […] As highlighted in yellow in FIG. 1B, the representative group also included 6 unique peptides overlapping between nerve2 and nerve3, 200 unique peptides overlapping between nerve2 and plated nerve2 (at least 60 counts), 4 unique peptides overlapping between nerve3 and plated nerve2. Finally, as highlighted in green in FIG. 1B, the representative group also included […] common to the nerve2, nerve3, and plated nerve2 sets.
As to 521 (QLPWEGPYYIVKKS) [compound 521], the Count was 41.

522 (QTPAEKPYYVVKKY) [compound 522]: the Count is listed as 41.

In the case of 523 (HVPSQEWYYDLHKS) [compound 523], the Count is recorded as 40.

524 (QFPWHKQFYVGKSS) [compound 524] returned a Count of 40.

Substance 525 (DFQIVGPSYVGKNS) [compound 525] came in with a Count of 39.

Turning to 526 (HLPSEKPWYDLDGS) [compound 526], the Count amounted to 39.

In turn, 527 (HVSWSTSKYVVNHS) [compound 527] displayed a Count of 39.

528 (QISWEDPDYGVRKS) [compound 528] yielded a Count of 39.

In the case of 529 (QVPCEQQSCVVKNS) [compound 529], the Count came to 39.

Regarding 530 (LFTGQQSYYEVQES) [compound 530], the Count turned out to be 38.

As for 531 (LVSPTGPIYVMNKS) [compound 531], the Count amounted to 38.

On to 532 (QFASEEPYHVMKKP) [compound 532], for which the Count is listed as 38.

On to 533 (QFSRADSQYLVKNS) [compound 533], for which the Count was 38.

Consider 534 (QIPLQDPYHVVEKS) [compound 534], for which the Count came to 38.

Substance 535 (QLLWGESYSIVKNY) [compound 535] gave a Count of 38.

536 (QLPSQTQNYYDTNA) [compound 536] registered a Count of 38.

As to 537 (QLRSEDTYYTMQSY) [compound 537], the Count came to 38.

Substance 538 (SVAGQQHYYVSTKP) [compound 538] registered a Count of 38.

Take 539 (HLPCKKSFYACKKH) [compound 539]: the Count turned out to be 37.

In turn, 540 (HVRFAEPYYAGKTS) [compound 540] came in with a Count of 37.

In the case of 541 (LLTGAEPYYLGKRS) [compound 541], the Count amounted to 37.

542 (QLPGAEAQNVVKYS) [compound 542] had a Count of 37.

As to 543 (QLRFDEHHSVVTHS) [compound 543], the Count stood at 37.

Regarding 544 (QYPWEQRYYFERKS) [compound 544], the Count is 37.

On to 545 (RVTWEGPYNSVKKS) [compound 545], for which the Count came out at 37.

Take 546 (DVALGESHYNVKKY) [compound 546]: the Count turned out to be 36.

For the substance 547 (DVPNDLPSYLVKNS) [compound 547], the Count amounted to 36.

Regarding 548 (EFPYQESEYIVKQS) [compound 548], the Count amounted to 36.

The substance 549 (GLPSKEPYYVVKPA) [compound 549] showed a Count of 36.

Turning to 550 (HVPWDDQYYVWRTN) [compound 550], the Count stood at 36.

In turn, 551 (HVQWDQTSYVVKNS) [compound 551] gave a Count of 36.

In turn, 552 (HVTSDDSYYAVKNP) [compound 552] returned a Count of 36.

For the substance 553 (QDPFGDLYYVTKMS) [compound 553], the Count is listed as 36.

For the substance 554 (QFPYDEPYNVVKKS) [compound 554], the Count came to 36.

555 (QHPWKEQYYMATKP) [compound 555] had a Count of 36.

Substance 556 (QLNSEEPYYHFKNY) [compound 556] yielded a Count of 36.

Consider 557 (QLPTNDPYYVLMES) [compound 557], for which the Count worked out at 36.
